One experiment deals with T1, Glucocorticoid receptor (Homo sapiens, UniProt P04150).
T1 sequence (P04150 whole entry): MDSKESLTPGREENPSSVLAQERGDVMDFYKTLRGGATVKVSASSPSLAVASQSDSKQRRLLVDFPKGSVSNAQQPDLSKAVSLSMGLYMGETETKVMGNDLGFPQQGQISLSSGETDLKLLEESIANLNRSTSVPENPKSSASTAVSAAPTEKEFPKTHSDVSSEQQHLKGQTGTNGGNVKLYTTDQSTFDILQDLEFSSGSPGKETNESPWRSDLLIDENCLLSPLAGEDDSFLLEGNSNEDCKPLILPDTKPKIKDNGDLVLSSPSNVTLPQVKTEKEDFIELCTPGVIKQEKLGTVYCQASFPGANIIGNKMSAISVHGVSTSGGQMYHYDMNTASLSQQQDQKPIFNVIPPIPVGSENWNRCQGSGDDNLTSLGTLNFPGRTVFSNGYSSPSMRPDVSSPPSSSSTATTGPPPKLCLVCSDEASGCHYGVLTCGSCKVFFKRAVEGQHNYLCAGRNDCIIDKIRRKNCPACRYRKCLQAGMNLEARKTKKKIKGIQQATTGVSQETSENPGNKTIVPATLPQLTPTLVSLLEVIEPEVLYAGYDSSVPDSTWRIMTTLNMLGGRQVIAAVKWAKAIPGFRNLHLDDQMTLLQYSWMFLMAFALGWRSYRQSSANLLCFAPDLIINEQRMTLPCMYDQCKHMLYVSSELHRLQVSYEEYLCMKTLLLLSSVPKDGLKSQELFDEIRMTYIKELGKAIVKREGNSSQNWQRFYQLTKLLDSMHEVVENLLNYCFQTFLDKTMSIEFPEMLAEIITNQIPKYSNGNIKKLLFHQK
It is filed as functional.

In experiment [1] the target is Receptor tyrosine-protein kinase erbB-2 (Homo sapiens, UniProt P04626). It is filed as functional.
Chain of Receptor tyrosine-protein kinase erbB-2 (P04626 whole entry): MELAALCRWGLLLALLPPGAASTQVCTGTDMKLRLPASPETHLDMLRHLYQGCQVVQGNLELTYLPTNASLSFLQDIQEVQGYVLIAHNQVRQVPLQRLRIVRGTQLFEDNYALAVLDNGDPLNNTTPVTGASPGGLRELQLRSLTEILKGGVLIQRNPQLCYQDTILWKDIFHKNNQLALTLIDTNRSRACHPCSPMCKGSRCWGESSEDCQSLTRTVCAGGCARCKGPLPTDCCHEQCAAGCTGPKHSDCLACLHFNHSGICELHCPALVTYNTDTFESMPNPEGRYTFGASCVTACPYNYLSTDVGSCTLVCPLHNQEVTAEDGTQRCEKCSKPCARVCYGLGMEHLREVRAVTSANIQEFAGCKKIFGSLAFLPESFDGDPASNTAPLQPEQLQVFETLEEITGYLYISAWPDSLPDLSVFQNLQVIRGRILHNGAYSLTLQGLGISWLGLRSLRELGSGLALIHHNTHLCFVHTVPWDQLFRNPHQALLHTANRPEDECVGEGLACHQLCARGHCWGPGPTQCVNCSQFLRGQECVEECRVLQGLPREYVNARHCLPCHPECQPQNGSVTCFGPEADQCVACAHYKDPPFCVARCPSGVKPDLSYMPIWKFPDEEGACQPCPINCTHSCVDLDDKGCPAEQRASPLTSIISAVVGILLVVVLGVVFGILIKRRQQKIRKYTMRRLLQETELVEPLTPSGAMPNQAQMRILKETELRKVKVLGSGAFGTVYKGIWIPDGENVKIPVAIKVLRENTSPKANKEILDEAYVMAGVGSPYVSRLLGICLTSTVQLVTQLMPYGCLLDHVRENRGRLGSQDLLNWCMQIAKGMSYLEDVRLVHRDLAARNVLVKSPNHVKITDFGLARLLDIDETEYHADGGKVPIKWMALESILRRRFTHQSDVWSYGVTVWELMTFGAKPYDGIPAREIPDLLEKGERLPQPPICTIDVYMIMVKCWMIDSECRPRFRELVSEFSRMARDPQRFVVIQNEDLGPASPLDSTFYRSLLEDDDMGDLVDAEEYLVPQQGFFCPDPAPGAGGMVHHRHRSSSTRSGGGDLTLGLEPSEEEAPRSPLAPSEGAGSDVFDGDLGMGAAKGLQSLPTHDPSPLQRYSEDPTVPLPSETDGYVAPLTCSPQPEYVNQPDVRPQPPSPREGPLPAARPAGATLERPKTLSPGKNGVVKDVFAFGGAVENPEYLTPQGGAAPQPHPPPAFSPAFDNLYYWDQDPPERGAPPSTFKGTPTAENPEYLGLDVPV
For the next experiment, the target named is T2, Progesterone receptor (Homo sapiens, UniProt P06401).
T2 sequence (P06401 whole entry): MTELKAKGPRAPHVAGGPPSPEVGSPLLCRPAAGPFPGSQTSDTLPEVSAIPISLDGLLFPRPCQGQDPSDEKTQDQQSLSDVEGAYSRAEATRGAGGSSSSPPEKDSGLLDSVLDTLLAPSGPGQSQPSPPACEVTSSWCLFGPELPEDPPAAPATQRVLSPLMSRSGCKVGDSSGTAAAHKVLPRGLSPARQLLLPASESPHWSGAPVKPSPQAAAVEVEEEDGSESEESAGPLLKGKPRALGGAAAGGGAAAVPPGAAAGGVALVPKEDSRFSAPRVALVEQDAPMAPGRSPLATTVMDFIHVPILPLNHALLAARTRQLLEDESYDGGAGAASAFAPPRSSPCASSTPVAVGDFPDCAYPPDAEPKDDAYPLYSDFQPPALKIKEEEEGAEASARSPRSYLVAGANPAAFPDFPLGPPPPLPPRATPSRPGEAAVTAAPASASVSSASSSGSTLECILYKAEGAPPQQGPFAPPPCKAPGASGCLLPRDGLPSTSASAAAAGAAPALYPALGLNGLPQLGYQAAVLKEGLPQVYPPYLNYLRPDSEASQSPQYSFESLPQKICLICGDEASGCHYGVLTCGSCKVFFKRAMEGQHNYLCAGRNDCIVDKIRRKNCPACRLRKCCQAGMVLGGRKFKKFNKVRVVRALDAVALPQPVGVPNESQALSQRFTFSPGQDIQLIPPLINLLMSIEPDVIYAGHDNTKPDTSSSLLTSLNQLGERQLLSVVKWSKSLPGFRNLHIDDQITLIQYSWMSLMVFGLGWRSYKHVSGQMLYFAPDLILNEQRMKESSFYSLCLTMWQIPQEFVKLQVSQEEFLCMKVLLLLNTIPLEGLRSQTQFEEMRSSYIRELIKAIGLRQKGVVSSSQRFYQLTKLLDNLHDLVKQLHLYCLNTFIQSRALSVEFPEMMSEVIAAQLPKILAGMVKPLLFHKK

The next experiment has as its target T3, D(4) dopamine receptor (Homo sapiens, UniProt P21917).
T3 sequence (P21917 whole entry): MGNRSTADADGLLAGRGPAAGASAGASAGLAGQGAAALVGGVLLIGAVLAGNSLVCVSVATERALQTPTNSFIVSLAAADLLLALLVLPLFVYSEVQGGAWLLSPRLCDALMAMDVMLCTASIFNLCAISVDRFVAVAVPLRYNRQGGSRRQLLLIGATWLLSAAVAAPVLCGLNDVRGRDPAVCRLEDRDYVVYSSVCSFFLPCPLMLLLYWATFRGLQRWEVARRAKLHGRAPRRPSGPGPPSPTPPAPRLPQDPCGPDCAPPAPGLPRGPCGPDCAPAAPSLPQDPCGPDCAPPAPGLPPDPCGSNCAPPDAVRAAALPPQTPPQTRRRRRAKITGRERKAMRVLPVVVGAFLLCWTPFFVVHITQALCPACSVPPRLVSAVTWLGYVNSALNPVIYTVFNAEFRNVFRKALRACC

Experiment [2] deals with Voltage-dependent N-type calcium channel subunit alpha-1B (Rattus norvegicus, UniProt Q02294). It is filed as functional.
Chain of Voltage-dependent N-type calcium channel subunit alpha-1B (Q02294 whole entry): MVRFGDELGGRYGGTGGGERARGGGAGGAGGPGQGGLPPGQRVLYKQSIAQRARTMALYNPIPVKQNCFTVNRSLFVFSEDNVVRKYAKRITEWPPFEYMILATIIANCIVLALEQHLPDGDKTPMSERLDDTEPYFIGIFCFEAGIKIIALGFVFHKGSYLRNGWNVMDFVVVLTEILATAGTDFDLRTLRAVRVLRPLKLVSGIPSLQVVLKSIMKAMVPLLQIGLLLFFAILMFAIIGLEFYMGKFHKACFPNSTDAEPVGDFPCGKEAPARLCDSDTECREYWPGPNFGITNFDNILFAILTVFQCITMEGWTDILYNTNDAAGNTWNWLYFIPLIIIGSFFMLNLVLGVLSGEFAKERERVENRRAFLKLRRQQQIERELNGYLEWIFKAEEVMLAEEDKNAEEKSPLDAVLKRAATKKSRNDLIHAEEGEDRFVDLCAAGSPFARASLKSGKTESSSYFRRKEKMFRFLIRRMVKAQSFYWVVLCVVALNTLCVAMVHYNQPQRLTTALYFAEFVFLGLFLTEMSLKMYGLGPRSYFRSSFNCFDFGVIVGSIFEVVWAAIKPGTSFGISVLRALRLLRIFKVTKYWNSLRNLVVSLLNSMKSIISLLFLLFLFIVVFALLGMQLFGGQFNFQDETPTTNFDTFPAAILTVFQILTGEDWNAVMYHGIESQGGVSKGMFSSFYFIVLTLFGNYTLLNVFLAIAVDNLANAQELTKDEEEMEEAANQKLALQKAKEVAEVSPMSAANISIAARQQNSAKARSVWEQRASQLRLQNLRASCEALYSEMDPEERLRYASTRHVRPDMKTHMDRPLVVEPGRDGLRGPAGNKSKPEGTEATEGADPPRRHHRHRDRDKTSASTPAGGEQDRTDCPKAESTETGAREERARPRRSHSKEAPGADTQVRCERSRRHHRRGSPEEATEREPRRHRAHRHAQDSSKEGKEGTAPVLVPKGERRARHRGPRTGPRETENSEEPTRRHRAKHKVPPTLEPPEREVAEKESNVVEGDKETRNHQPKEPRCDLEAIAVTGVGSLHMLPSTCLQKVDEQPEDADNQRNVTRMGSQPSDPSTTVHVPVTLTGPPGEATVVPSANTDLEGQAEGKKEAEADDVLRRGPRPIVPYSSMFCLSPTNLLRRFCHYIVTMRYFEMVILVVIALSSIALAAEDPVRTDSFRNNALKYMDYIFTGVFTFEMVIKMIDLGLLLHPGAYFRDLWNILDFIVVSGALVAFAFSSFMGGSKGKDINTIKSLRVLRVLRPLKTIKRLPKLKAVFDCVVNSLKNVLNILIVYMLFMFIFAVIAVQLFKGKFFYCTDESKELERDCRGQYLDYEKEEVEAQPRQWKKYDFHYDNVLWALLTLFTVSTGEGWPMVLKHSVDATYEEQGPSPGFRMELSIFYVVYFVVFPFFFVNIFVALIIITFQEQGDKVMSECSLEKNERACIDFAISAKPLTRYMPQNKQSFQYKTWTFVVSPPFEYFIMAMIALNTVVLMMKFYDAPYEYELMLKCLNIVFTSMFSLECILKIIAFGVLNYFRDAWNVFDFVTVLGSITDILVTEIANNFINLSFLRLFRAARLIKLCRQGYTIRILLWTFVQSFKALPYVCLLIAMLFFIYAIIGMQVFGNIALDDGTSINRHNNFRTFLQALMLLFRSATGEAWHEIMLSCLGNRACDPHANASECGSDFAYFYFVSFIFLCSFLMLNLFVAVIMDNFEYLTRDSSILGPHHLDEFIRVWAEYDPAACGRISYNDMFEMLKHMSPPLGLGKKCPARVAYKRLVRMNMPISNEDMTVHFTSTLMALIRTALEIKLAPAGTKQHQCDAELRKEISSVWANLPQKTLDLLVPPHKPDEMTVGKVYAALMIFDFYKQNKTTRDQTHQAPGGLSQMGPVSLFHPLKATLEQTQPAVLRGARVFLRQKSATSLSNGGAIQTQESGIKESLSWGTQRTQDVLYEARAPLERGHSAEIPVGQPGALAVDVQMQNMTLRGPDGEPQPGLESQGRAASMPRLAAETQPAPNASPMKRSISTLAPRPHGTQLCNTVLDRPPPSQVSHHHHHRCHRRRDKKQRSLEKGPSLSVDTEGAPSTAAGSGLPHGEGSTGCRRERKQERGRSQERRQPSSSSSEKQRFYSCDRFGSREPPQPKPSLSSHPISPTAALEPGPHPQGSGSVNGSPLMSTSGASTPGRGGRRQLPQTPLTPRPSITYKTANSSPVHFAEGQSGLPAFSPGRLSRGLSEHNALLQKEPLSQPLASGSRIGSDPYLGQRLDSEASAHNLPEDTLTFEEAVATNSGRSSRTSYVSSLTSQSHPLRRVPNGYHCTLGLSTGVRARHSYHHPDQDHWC
Experiment [3] addresses T4, 5-hydroxytryptamine receptor 1A (Homo sapiens, UniProt P08908).
T4 sequence (P08908 whole entry): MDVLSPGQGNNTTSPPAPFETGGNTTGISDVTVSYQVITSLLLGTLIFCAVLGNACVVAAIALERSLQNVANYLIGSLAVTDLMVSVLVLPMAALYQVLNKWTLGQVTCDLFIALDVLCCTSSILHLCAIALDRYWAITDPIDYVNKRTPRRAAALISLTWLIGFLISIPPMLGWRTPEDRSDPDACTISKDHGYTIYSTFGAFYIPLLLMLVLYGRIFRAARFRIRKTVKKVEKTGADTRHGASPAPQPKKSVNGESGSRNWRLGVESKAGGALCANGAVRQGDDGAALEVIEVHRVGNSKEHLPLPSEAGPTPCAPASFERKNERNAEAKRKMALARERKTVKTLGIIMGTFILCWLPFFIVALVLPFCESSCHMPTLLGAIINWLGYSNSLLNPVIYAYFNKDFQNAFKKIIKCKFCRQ

A further experiment has as its target Estrogen receptor beta (Homo sapiens, UniProt Q92731).
Experiment [4] has as its target Gamma-aminobutyric acid receptor subunit alpha-1 (Rattus norvegicus, UniProt P62813).
Further: assay procedure not described here.

Chain of Gamma-aminobutyric acid receptor subunit alpha-1 (P62813 whole entry): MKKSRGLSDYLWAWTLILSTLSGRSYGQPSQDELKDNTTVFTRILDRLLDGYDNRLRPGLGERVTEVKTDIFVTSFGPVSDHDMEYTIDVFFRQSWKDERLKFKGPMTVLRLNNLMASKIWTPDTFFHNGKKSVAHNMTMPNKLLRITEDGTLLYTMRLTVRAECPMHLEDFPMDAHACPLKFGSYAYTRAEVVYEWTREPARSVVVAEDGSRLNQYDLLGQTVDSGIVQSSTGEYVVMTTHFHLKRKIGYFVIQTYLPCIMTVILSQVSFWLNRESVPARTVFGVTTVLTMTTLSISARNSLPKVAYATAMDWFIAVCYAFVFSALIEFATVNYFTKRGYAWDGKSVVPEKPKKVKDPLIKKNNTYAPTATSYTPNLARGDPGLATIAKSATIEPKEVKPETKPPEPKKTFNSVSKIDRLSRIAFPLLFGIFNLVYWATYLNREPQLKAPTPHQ
Chain of Estrogen receptor beta (Q92731 whole entry): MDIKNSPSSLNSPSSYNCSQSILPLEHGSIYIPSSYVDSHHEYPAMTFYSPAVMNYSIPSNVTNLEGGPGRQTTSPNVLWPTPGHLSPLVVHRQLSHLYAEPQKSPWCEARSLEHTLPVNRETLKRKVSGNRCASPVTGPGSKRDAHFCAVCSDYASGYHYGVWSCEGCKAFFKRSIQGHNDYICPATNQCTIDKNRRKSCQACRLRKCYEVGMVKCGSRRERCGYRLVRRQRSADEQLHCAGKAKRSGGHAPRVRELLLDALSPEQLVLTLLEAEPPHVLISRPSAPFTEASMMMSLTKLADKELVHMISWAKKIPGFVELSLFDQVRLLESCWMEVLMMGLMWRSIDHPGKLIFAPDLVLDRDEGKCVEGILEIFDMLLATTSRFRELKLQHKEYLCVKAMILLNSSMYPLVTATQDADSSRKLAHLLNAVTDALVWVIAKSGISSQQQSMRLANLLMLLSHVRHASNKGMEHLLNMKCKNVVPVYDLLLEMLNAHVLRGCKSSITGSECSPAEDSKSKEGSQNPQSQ

Turning to `CN(C)CCC=C1c2ccccc2C(C)(C)c2ccccc21`, the AC50 (at Glucocorticoid receptor; in experiment [1]) was greater than 30 µM throughout.

Consider `CNC(=O)c1ccccc1Sc1ccc2c(/C=C/c3ccccn3)n[nH]c2c1` [AXITINIB], for which the AC50 (in general, the concentration giving half of the maximal activity seen) on Progesterone receptor was greater than 30 µM; at Glucocorticoid receptor, greater than 10 µM.

Turning to `NCC(CC(=O)O)c1ccc(Cl)cc1` (configuration not stated) [BACLOFEN], the AC50 was greater than 10 µM at D(4) dopamine receptor; greater than 30 µM at Progesterone receptor; greater than 30 µM at Glucocorticoid receptor; greater than 10 µM in experiment [2]; greater than 10 µM in experiment [3]; greater than 30 µM on Estrogen receptor beta. In experiment [1], this molecule gave an AC50 greater than 30 µM.

As for `CC(C)C[C@H]1C(=O)N2CCC[C@H]2[C@]2(O)O[C@](NC(=O)[C@@H]3C=C4c5cccc6[nH]c(Br)c(c56)C[C@H]4N(C)C3)(C(C)C)C(=O)N12` [BROMOCRIPTINE], the half-maximal activity concentration (AC50) is greater than 30 µM on Progesterone receptor; greater than 30 µM in experiment [4]; greater than 30 µM at Glucocorticoid receptor; greater than 10 µM in experiment [2]; 0.319 µM in experiment [3]; greater than 30 µM in experiment [1].

On Glucocorticoid receptor, `O=C1Nc2ccc(Cl)cc2[C@@](C#CC2CC2)(C(F)(F)F)O1` [EFAVIRENZ] yielded an AC50 greater than 30 µM.

In experiment [1], `O=C(OCC(O)CO)c1ccccc1Nc1ccnc2cc(Cl)ccc12` (configuration not stated) [GLAFENINE] showed an AC50 greater than 30 µM.

Consider `CCC1=C(C)CN(C(=O)NCCc2ccc(S(=O)(=O)NC(=O)N[C@H]3CC[C@H](C)CC3)cc2)C1=O` [GLIMEPIRIDE], for which the half-maximal activity concentration (AC50) (in experiment [4]; on Glucocorticoid receptor) was greater than 30 µM each time.

Regarding `c1ccc([C@H]2CN3CCSC3=N2)cc1` [LEVAMISOLE], the AC50 (at Progesterone receptor; on Glucocorticoid receptor; in experiment [1]) was greater than 30 µM throughout.

With `C[C@H]1CNCCc2ccc(Cl)cc21` [LORCASERIN], the AC50 (on Glucocorticoid receptor; in experiment [1]) was greater than 30 µM each time.

For the molecule `C[C@@H](O)[C@H]1C(=O)N2C(C(=O)O)=C(S[C@@H]3CN[C@H](C(=O)N(C)C)C3)[C@H](C)[C@H]12` [MEROPENEM], the AC50 (at Glucocorticoid receptor; in experiment [1]) was greater than 300 µM each time.

As for `CNC1Cc2ccccc2N(C)c2ccccc21` (configuration not stated) [METAPRAMINE], the AC50 (at Glucocorticoid receptor; in experiment [1]) was greater than 30 µM each time.

For the molecule `COc1ccc(CC(C)(C)NC[C@H](O)c2cc(O)cc3c2OCC(=O)N3)cc1` [OLODATEROL], the concentration at half-maximal activity (AC50) (at Glucocorticoid receptor; in experiment [1]) was greater than 30 µM throughout.

For the molecule `CCCN1C[C@H](CSC)C[C@@H]2c3cccc4[nH]cc(c34)C[C@H]21` [PERGOLIDE], the AC50 on Progesterone receptor was greater than 30 µM; at Glucocorticoid receptor it was greater than 30 µM; in experiment [2] it was greater than 10 µM; on Estrogen receptor beta, greater than 30 µM.

Take `C1CCC(C(CC2CCCCN2)C2CCCCC2)CC1` (configuration not stated) [PERHEXILINE]: the AC50 (on Glucocorticoid receptor; in experiment [1]) was greater than 30 µM throughout.

As for `c1cnc(N2CCN(Cc3ccc4c(c3)OCO4)CC2)nc1` [PIRIBEDIL], the AC50 (on Glucocorticoid receptor; in experiment [1]) was greater than 30 µM in each case.

On to `COCCCN1CCC(NC(=O)c2cc(Cl)c(N)c3c2OCC3)CC1` [PRUCALOPRIDE], for which the AC50 (in experiment [4]; on Glucocorticoid receptor) was greater than 30 µM in each case.

For the molecule `Cc1c(C(=O)NN2CCCCC2)nn(-c2ccc(Cl)cc2Cl)c1-c1ccc(Cl)cc1` [RIMONABANT], the AC50 on D(4) dopamine receptor is greater than 10 µM; at Progesterone receptor it was greater than 30 µM; at Glucocorticoid receptor it was greater than 30 µM; in experiment [2], greater than 10 µM; in experiment [3] it was greater than 10 µM; at Estrogen receptor beta it was greater than 30 µM. In experiment [1], this molecule registered an AC50 greater than 30 µM.

Take `Cn1nnc2c(C(N)=O)ncn2c1=O` [TEMOZOLOMIDE]: the AC50 on D(4) dopamine receptor is greater than 10 µM; on Progesterone receptor it was greater than 30 µM; in experiment [2], greater than 10 µM; in experiment [3], greater than 10 µM; at Estrogen receptor beta it was greater than 30 µM; in experiment [1] it was greater than 30 µM.

As for `N[C@@H]1[C@H]2CN(c3nc4c(cc3F)c(=O)c(C(=O)O)cn4-c3ccc(F)cc3F)C[C@@H]12` [TROVAFLOXACIN], the AC50 (on Glucocorticoid receptor; in experiment [1]) was greater than 30 µM each time.

Source of the values: ChEMBL document CHEMBL5291721, “A preclinical secondary pharmacology resource illuminates target-adverse drug reaction associations of marketed drugs” (Nat Commun, 2023).
